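Method: 48-hour compound exposure of cells in 96-well plates, five concentrations, linear interpolation of endpoints. Here, GI50 denotes the concentration required for 50% inhibition of growth.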 Activity calls are given as the source filed them. Cut-off read from the data, not from the text of the source: active = GI50 up to about 1.1 µM and inactive = higher.
Columns and labels:
Assay in all cases: NCI-60 cell line screen, 48 h
UO-31 = tested on: UO-31
NCI-H23 = tested on: NCI-H23
SK-MEL-5 = tested on: SK-MEL-5
SW-620 = tested on: SW-620
MDA-MB-231 = tested on: MDA-MB-231
UACC-62 = tested on: UACC-62
NCI-H460 = tested on: NCI-H460
NCI-H226 = tested on: NCI-H226
SF-268 = tested on: SF-268
RPMI-8226 = tested on: RPMI-8226
TK-10 = tested on: TK-10
OVCAR-4 = tested on: OVCAR-4
A549 = tested on: A549
IGROV-1 = tested on: IGROV-1
HL-60 = tested on: HL-60
RXF 393 = tested on: RXF 393
CCRF-CEM = tested on: CCRF-CEM
SR = tested on: SR
HCT-15 = tested on: HCT-15
U-251 = tested on: U-251
SF-539 = tested on: SF-539
Hs-578T = tested on: Hs-578T
OVCAR-3 = tested on: OVCAR-3
SNB-19 = tested on: SNB-19
MDA-N = tested on: MDA-N
OVCAR-8 = tested on: OVCAR-8
T47D = tested on: T47D
LOX IMVI = tested on: LOX IMVI
786-0 = tested on: 786-0
EKVX = tested on: EKVX
Malme-3M = tested on: Malme-3M
HCT-116 = tested on: HCT-116
UACC-257 = tested on: UACC-257
OVCAR-5 = tested on: OVCAR-5
A498 = tested on: A498
ACHN = tested on: ACHN
DU-145 = tested on: DU-145
COLO 205 = tested on: COLO 205
BT-549 = tested on: BT-549
SK-OV-3 = tested on: SK-OV-3
HOP-92 = tested on: HOP-92
SK-MEL-28 = tested on: SK-MEL-28
HT-29 = tested on: HT-29
MOLT-4 = tested on: MOLT-4
KM12 = tested on: KM12
CAKI-1 = tested on: CAKI-1
SF-295 = tested on: SF-295
NCI-H522 = tested on: NCI-H522
NCI/ADR-RES = tested on: NCI/ADR-RES
MDA-MB-435 = tested on: MDA-MB-435
SN12C = tested on: SN12C
SK-MEL-2 = tested on: SK-MEL-2
M14 = tested on: M14
K562 = tested on: K562
HOP-62 = tested on: HOP-62
PC-3 = tested on: PC-3
MCF7 = tested on: MCF7
SNB-75 = tested on: SNB-75
HCC 2998 = tested on: HCC 2998

Q: Which results are given for `CC1(C)CC2=NC(SSC3=C(C#N)C(c4ccc(Br)cc4)C4=C(O)CC(C)(C)CC4=N3)=C(C#N)C(c3ccc(Br)cc3)C2=C(O)C1` (stereo unspecified)?
A: GI50 (UO-31): > 100 µM (inactive); GI50 (NCI-H23): > 100 µM (inactive); GI50 (SK-MEL-5): > 100 µM (inactive); GI50 (SW-620): > 100 µM (inactive); GI50 (MDA-MB-231): > 100 µM (inactive); GI50 (UACC-62): > 100 µM (inactive); GI50 (NCI-H460): > 100 µM (inactive); GI50 (NCI-H226): > 100 µM (inactive); GI50 (SF-268): > 100 µM (inactive); GI50 (RPMI-8226): 67.8 µM (inactive); GI50 (TK-10): > 100 µM (inactive); GI50 (OVCAR-4): > 100 µM (inactive); GI50 (A549): > 100 µM (inactive); GI50 (IGROV-1): > 100 µM (inactive); GI50 (HL-60): 46.6 µM (inactive); GI50 (RXF 393): > 100 µM (inactive); GI50 (CCRF-CEM): > 100 µM (inactive); GI50 (SR): 48.3 µM (inactive); GI50 (HCT-15): > 100 µM; GI50 (U-251): > 100 µM (inactive); GI50 (SF-539): > 100 µM (inactive); GI50 (Hs-578T): > 100 µM (inactive); GI50 (OVCAR-3): > 100 µM (inactive); GI50 (SNB-19): > 100 µM (inactive); GI50 (MDA-N): > 100 µM (inactive); GI50 (OVCAR-8): > 100 µM (inactive); GI50 (T47D): > 100 µM (inactive); GI50 (LOX IMVI): > 100 µM (inactive); GI50 (786-0): > 100 µM (inactive); GI50 (EKVX): > 100 µM (inactive); GI50 (Malme-3M): > 100 µM (inactive); GI50 (HCT-116): > 100 µM (inactive); GI50 (UACC-257): > 100 µM (inactive); GI50 (OVCAR-5): > 100 µM (inactive); GI50 (A498): > 100 µM (inactive); GI50 (ACHN): > 100 µM (inactive); GI50 (DU-145): > 100 µM (inactive); GI50 (COLO 205): > 100 µM (inactive); GI50 (BT-549): > 100 µM (inactive); GI50 (SK-OV-3): > 100 µM (inactive); GI50 (HOP-92): 70.6 µM (inactive); GI50 (SK-MEL-28): > 100 µM (inactive); GI50 (HT-29): > 100 µM (inactive); GI50 (MOLT-4): 59 µM (inactive); GI50 (KM12): > 100 µM (inactive); GI50 (CAKI-1): > 100 µM (inactive); GI50 (SF-295): > 100 µM (inactive); GI50 (NCI-H522): 57.7 µM (inactive); GI50 (NCI/ADR-RES): > 100 µM (inactive); GI50 (MDA-MB-435): > 100 µM (inactive); GI50 (SN12C): > 100 µM (inactive); GI50 (SK-MEL-2): > 100 µM (inactive); GI50 (M14): > 100 µM (inactive); GI50 (K562): 75 µM (inactive); GI50 (HOP-62): > 100 µM (inactive); GI50 (PC-3): > 100 µM (inactive)

Q: What does the source list for `COc1ccc(C2SCC(=O)N2NC(=O)c2ccc(NC(C)=O)cc2)cc1` (stereo unspecified)?
A: GI50 (UO-31): > 100 µM (inactive); GI50 (NCI-H23): > 100 µM (inactive); GI50 (SK-MEL-5): > 100 µM (inactive); GI50 (SW-620): > 100 µM (inactive); GI50 (MDA-MB-231): 26.5 µM (inactive); GI50 (UACC-62): > 100 µM (inactive); GI50 (NCI-H460): > 100 µM (inactive); GI50 (NCI-H226): > 100 µM (inactive); GI50 (SF-268): > 100 µM (inactive); GI50 (RPMI-8226): > 100 µM (inactive); GI50 (TK-10): > 100 µM (inactive); GI50 (OVCAR-4): > 100 µM (inactive); GI50 (A549): > 100 µM (inactive); GI50 (IGROV-1): > 100 µM (inactive); GI50 (RXF 393): > 100 µM (inactive); GI50 (HCT-15): > 100 µM; GI50 (U-251): 40.6 µM (inactive); GI50 (SF-539): > 100 µM (inactive); GI50 (Hs-578T): > 100 µM (inactive); GI50 (OVCAR-3): > 100 µM (inactive); GI50 (SNB-19): > 100 µM (inactive); GI50 (MDA-N): > 100 µM (inactive); GI50 (OVCAR-8): > 100 µM (inactive); GI50 (T47D): > 100 µM (inactive); GI50 (786-0): > 100 µM (inactive); GI50 (EKVX): > 100 µM (inactive); GI50 (HCT-116): > 100 µM (inactive); GI50 (UACC-257): > 100 µM (inactive); GI50 (OVCAR-5): > 100 µM (inactive); GI50 (A498): > 100 µM (inactive); GI50 (ACHN): > 100 µM (inactive); GI50 (DU-145): > 100 µM (inactive); GI50 (COLO 205): > 100 µM (inactive); GI50 (BT-549): 74.1 µM (inactive); GI50 (MCF7): > 100 µM (inactive); GI50 (SNB-75): > 100 µM (inactive); GI50 (SK-OV-3): > 100 µM (inactive); GI50 (HOP-92): 38 µM (inactive); GI50 (SK-MEL-28): > 100 µM (inactive); GI50 (HT-29): > 100 µM (inactive); GI50 (MOLT-4): > 100 µM (inactive); GI50 (KM12): > 100 µM (inactive); GI50 (SF-295): > 100 µM (inactive); GI50 (NCI/ADR-RES): > 100 µM (inactive); GI50 (MDA-MB-435): > 100 µM (inactive); GI50 (SN12C): > 100 µM (inactive); GI50 (SK-MEL-2): > 100 µM (inactive); GI50 (HCC 2998): > 100 µM (inactive); GI50 (M14): > 100 µM (inactive); GI50 (K562): > 100 µM (inactive); GI50 (HOP-62): > 100 µM (inactive)

Q: `O=C1C(Br)=C(C2=CC(=P(c3ccccc3)(c3ccccc3)c3ccccc3)C=C2)C(=O)C(Br)=C1C1=CC(=P(c2ccccc2)(c2ccccc2)c2ccccc2)C=C1` was tested. Which GI50 (UO-31) did it give?
A: > 100 µM (inactive)

Q: What about the GI50 (NCI-H23) of the same molecule?
A: > 100 µM (inactive)

Q: And the GI50 (SK-MEL-5)?
A: > 100 µM (inactive)

Q: What about the GI50 (SW-620) of the same molecule?
A: 19.4 µM (inactive)

Q: And the GI50 (MDA-MB-231)?
A: 42.1 µM (inactive)

Q: What about the GI50 (UACC-62) of the same molecule?
A: > 100 µM (inactive)

Q: And the GI50 (SF-268)?
A: > 100 µM (inactive)

Q: And the GI50 (RPMI-8226)?
A: > 100 µM (inactive)

Q: And the GI50 (TK-10)?
A: 30.3 µM (inactive)

Q: And the GI50 (OVCAR-4)?
A: 76 µM (inactive)

Q: What about the GI50 (A549) of the same molecule?
A: > 100 µM (inactive)

Q: What about the GI50 (IGROV-1) of the same molecule?
A: 40.3 µM (inactive)

Q: And the GI50 (HL-60)?
A: > 100 µM (inactive)

Q: And the GI50 (RXF 393)?
A: > 100 µM (inactive)

Q: What about the GI50 (CCRF-CEM) of the same molecule?
A: > 100 µM (inactive)

Q: And the GI50 (SR)?
A: > 100 µM (inactive)

Q: What about the GI50 (U-251) of the same molecule?
A: 16.9 µM (inactive)

Q: What about the GI50 (SF-539) of the same molecule?
A: > 100 µM (inactive)

Q: And the GI50 (Hs-578T)?
A: > 100 µM (inactive)

Q: What about the GI50 (OVCAR-3) of the same molecule?
A: 40.2 µM (inactive)

Q: And the GI50 (SNB-19)?
A: > 100 µM (inactive)

Q: And the GI50 (MDA-N)?
A: > 100 µM (inactive)

Q: What about the GI50 (OVCAR-8) of the same molecule?
A: > 100 µM (inactive)

Q: What about the GI50 (T47D) of the same molecule?
A: > 100 µM (inactive)

Q: What about the GI50 (LOX IMVI) of the same molecule?
A: > 100 µM (inactive)

Q: And the GI50 (786-0)?
A: 37.9 µM (inactive)

Q: And the GI50 (EKVX)?
A: 19.9 µM (inactive)

Q: And the GI50 (Malme-3M)?
A: 18.3 µM (inactive)

Q: What about the GI50 (HCT-116) of the same molecule?
A: 99.1 µM (inactive)

Q: And the GI50 (UACC-257)?
A: 33.3 µM (inactive)

Q: What about the GI50 (OVCAR-5) of the same molecule?
A: 17.9 µM (inactive)

Q: And the GI50 (A498)?
A: > 100 µM (inactive)

Q: And the GI50 (ACHN)?
A: > 100 µM (inactive)

Q: What about the GI50 (DU-145) of the same molecule?
A: > 100 µM (inactive)

Q: What about the GI50 (COLO 205) of the same molecule?
A: > 100 µM (inactive)

Q: And the GI50 (BT-549)?
A: > 100 µM (inactive)

Q: And the GI50 (MCF7)?
A: > 100 µM (inactive)

Q: What about the GI50 (SNB-75) of the same molecule?
A: > 100 µM (inactive)

Q: And the GI50 (SK-OV-3)?
A: > 100 µM (inactive)

Q: What about the GI50 (HOP-92) of the same molecule?
A: 28.2 µM (inactive)

Q: And the GI50 (SK-MEL-28)?
A: 41.8 µM (inactive)

Q: And the GI50 (HT-29)?
A: > 100 µM (inactive)

Q: And the GI50 (MOLT-4)?
A: > 100 µM (inactive)

Q: What about the GI50 (KM12) of the same molecule?
A: > 100 µM (inactive)

Q: What about the GI50 (CAKI-1) of the same molecule?
A: > 100 µM (inactive)

Q: What about the GI50 (SF-295) of the same molecule?
A: > 100 µM (inactive)

Q: What about the GI50 (NCI-H522) of the same molecule?
A: 19.9 µM (inactive)

Q: And the GI50 (NCI/ADR-RES)?
A: > 100 µM (inactive)

Q: And the GI50 (SN12C)?
A: > 100 µM (inactive)

Q: What about the GI50 (SK-MEL-2) of the same molecule?
A: > 100 µM (inactive)

Q: And the GI50 (M14)?
A: 12.6 µM (inactive)

Q: What about the GI50 (K562) of the same molecule?
A: > 100 µM (inactive)

Q: What about the GI50 (HOP-62) of the same molecule?
A: > 100 µM (inactive)

Q: What about the GI50 (PC-3) of the same molecule?
A: > 100 µM (inactive)
